Test results as given in ChEMBL document CHEMBL3817761, “Chenopodium album metabolites act as dual topoisomerase inhibitors and induce apoptosis in the MCF7 cell line” (Medchemcomm, 2016).
Active and inactive are the calls of the source. The calls are words filed in the database; no cut-off is given here.

How the values were obtained:
[1] = target: T1, DNA topoisomerase 1 (Homo sapiens) (UniProt P11387); test: Poisoning activity at human recombinant topoisomerase 1 assessed as stabilization of enzyme-supercoiled pBS (SK+) DNA complex at 60 uM after 30 mins by ethidium bromide staining based agarose gel electrophoresis
T1 sequence (whole entry): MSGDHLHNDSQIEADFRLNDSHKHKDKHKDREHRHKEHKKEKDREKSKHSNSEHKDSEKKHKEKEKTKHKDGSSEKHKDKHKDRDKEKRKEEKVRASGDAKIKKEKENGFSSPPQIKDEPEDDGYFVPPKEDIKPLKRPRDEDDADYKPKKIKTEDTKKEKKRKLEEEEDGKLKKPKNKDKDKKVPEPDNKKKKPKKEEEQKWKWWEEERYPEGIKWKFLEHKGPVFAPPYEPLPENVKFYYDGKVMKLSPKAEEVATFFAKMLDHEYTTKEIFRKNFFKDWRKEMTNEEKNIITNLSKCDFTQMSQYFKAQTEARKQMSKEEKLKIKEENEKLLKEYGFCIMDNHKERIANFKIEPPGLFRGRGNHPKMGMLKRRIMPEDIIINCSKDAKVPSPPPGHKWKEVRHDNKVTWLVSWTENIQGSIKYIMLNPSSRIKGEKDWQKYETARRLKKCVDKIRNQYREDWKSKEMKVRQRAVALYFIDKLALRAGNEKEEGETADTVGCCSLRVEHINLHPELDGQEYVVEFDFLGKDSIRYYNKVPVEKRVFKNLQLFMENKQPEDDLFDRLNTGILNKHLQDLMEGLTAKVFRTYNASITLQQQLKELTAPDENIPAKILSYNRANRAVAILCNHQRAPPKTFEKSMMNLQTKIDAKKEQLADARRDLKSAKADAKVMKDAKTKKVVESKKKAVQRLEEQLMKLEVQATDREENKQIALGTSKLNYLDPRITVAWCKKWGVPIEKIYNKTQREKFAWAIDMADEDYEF

[2] = test system: MCF7; test: Induction of mitochondrial membrane depolarization in human MCF7 cells assessed as ratio of red to green fluorescence at 11.33 uM after 24 hrs by JC-1 staining based FACS assay (reference value: 9.1); type: functional
[3] = test system: MCF7; test: Induction of mitochondrial membrane depolarization in human MCF7 cells assessed as ratio of red to green fluorescence at 11.33 uM after 48 hrs by JC-1 staining based FACS assay (reference value: 9.1); type: functional
[4] = test system: MCF7; test: Induction of ROS accumulation in human MCF7 cells at 11.33 uM after 12 hrs by CM-H2-DCFDA probe based flow cytometry (reference value: 5.1 %); type: functional
[5] = target: T1, DNA topoisomerase 1 (Homo sapiens); test: Poisoning activity at topoisomerase 1 in human MCF7 cells at 10 uM after 12 hrs by immunoband depletion assay; type: cell-based
[6] = test system: MCF7; test: Cytotoxicity against human MCF7 cells assessed as reduction in cell viability after 72 hrs by MTT assay; type: functional, cell-based; details: MCF7, 72 h
[7] = target: DNA topoisomerase 2-alpha (Homo sapiens) (UniProt P11388); test: Poisoning activity at topoisomerase 2 in human MCF7 cells at 10 uM after 12 hrs by immunoband depletion assay; type: cell-based
[8] = target: DNA topoisomerase 2-alpha (Homo sapiens) (UniProt P11388); test: Poisoning activity at human recombinant topoisomerase 2 assessed as stabilization of enzyme-supercoiled pBS (SK+) DNA complex at 60 uM after 30 mins by ethidium bromide staining based agarose gel electrophoresis
[9] = Cytotoxicity against human HCT116 cells assessed as reduction in cell viability after 72 hrs by MTT assay; type: functional, cell-based; details: HCT-116, 72 h
[10] = target: DNA topoisomerase 2-alpha (Homo sapiens) (UniProt P11388); test: Inhibition of human recombinant topoisomerase 2-mediated relaxation of supercoiled pBS (SK+) DNA at 60 uM after 30 mins by ethidium bromide staining based agarose gel electrophoresis
[11] = Cytotoxicity against human MOLT4 cells assessed as reduction in cell viability after 72 hrs by MTT assay; type: functional, cell-based; details: MOLT-4, 72 h
[12] = target: T1, DNA topoisomerase 1 (Homo sapiens); test: Inhibition of CPT mediated formation of topoisomerase 1-supercoiled pBS (SK+) DNA complex in human MCF7 cells at 10 uM preincubated for 2 hrs followed by CPT addition measured after 4 to 12 hrs by immunoband depletion assay; type: cell-based
[13] = test system: MCF7; test: Induction of apoptosis in human MCF7 cells assessed as late apoptotic cells at 11.33 uM after 24 hrs by Annexin-V-FITC/propidium iodide staining based flow cytometry (reference value: 0.1 %); type: functional
[14] = target: DNA topoisomerase 2-alpha (Homo sapiens) (UniProt P11388); test: Inhibition of ETO mediated formation of topoisomerase 2-supercoiled pBS (SK+) DNA complex in human MCF7 cells at 10 uM preincubated for 2 hrs followed by ETO addition measured after 4 to 12 hrs by immunoband depletion assay; type: cell-based
[15] = test system: MCF7; test: Cell cycle arrest in human MCF7 cells assessed as accumulation at S phase at 11.33 uM after 48 hrs by propidium iodide staining based flow cytometry (reference value: 20.6 %); type: functional
[16] = test system: MCF7; test: Induction of apoptosis in human MCF7 cells assessed as rounded cells at 11.33 uM after 24 hrs by inverted phase contrast microscopy; type: functional, cell-based
[17] = test system: MCF7; test: Induction of ROS accumulation in human MCF7 cells at 11.33 uM after 24 hrs by CM-H2-DCFDA probe based flow cytometry (reference value: 12.6 %); type: functional
[18] = test system: MCF7; test: Induction of apoptosis in human MCF7 cells assessed as late apoptotic cells at 11.33 uM after 48 hrs by Annexin-V-FITC/propidium iodide staining based flow cytometry relative to control; type: functional
[19] = target: T1, DNA topoisomerase 1 (Homo sapiens); test: Inhibition of human recombinant topoisomerase 1-mediated relaxation of supercoiled pBS (SK+) DNA at 60 uM after 30 mins by ethidium bromide staining based agarose gel electrophoresis
[20] = test system: MCF7; test: Induction of apoptosis in human MCF7 cells assessed as cell detachment at 11.33 uM after 24 hrs by inverted phase contrast microscopy; type: functional, cell-based
[21] = test system: MCF7; test: Induction of mitochondrial membrane depolarization in human MCF7 cells at 11.33 uM after 48 hrs by JC-1 staining based FACS assay (reference value: 9.9 %); type: functional
[22] = test system: MCF7; test: Induction of mitochondrial membrane depolarization in human MCF7 cells at 11.33 uM by JC-1 staining based FACS assay; type: functional, cell-based; details: TDE = time-dependent effect
[23] = Cytotoxicity against human SKBR3 cells assessed as reduction in cell viability after 72 hrs by MTT assay; type: functional, cell-based; details: SK-BR-3, 72 h
[24] = test system: MCF7; test: Induction of mitochondrial membrane depolarization in human MCF7 cells assessed as ratio of red to green fluorescence at 8.27 uM after 24 hrs by JC-1 staining based FACS assay (reference value: 9.1); type: functional
[25] = test system: MCF7; test: Induction of apoptosis in human MCF7 cells assessed as PARP-1 cleavage at 8.27 uM after 48 hrs by Western blot analysis; type: functional, cell-based
[26] = test system: MCF7; test: Induction of apoptosis in human MCF7 cells assessed as early apoptotic cells at 8.27 uM after 48 hrs by Annexin-V-FITC/propidium iodide staining based flow cytometry (reference value: 0.4 %); type: functional
[27] = test system: MCF7; test: Induction of ROS accumulation in human MCF7 cells at 8.27 uM after 12 hrs by CM-H2-DCFDA probe based flow cytometry (reference value: 5.1 %); type: functional
[28] = test system: MCF7; test: Cell cycle arrest in human MCF7 cells assessed as accumulation at S phase at 8.27 uM after 24 hrs by propidium iodide staining based flow cytometry (reference value: 24.5 %); type: functional

Chain of DNA topoisomerase 2-alpha (Homo sapiens) (P11388 whole entry): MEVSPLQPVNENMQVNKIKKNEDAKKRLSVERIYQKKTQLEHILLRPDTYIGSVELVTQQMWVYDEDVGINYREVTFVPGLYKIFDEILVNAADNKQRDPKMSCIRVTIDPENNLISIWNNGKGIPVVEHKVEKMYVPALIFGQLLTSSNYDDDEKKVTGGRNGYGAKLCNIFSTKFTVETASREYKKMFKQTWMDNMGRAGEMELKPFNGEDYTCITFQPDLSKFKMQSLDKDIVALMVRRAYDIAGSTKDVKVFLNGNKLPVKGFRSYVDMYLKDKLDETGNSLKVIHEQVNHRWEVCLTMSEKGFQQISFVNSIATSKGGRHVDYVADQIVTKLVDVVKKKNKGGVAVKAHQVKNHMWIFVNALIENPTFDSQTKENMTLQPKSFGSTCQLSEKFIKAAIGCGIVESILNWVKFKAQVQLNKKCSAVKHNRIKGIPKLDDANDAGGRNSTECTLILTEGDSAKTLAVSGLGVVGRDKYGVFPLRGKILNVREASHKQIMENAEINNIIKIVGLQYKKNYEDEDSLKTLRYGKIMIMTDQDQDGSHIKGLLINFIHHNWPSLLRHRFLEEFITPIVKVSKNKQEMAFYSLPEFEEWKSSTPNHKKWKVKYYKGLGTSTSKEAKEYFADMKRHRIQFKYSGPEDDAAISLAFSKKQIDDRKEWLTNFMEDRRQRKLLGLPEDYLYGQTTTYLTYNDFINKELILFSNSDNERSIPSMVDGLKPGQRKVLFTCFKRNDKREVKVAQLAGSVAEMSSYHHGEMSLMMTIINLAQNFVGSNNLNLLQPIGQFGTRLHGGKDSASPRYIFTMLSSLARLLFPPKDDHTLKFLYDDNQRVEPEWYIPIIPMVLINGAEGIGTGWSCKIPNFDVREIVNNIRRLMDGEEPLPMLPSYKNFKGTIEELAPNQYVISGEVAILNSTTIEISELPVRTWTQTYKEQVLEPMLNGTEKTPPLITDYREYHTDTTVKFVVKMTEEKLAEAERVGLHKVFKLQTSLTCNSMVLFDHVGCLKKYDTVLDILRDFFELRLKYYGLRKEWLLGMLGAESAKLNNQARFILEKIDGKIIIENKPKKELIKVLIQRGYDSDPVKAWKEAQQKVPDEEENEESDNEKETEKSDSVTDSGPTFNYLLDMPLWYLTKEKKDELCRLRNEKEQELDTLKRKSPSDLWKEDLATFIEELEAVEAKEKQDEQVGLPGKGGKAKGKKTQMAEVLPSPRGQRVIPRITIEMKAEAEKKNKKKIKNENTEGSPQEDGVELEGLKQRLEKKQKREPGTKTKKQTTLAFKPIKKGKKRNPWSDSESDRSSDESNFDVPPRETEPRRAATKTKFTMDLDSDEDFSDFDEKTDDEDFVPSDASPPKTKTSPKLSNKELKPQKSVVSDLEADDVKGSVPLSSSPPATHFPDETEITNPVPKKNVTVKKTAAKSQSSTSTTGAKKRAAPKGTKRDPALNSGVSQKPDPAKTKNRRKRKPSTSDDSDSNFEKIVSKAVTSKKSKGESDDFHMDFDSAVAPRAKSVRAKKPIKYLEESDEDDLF

| SMILES | Activity [1] | Activity [5] | IC50 [6] [µM] | Activity [7] | Activity [8] | IC50 [9] [µM] | inhibition [10] | IC50 [11] [µM] | inhibition [12] | inhibition [14] | inhibition [19] | IC50 [23] [µM] | other results |
| --- | --- | --- | --- | --- | --- | --- | --- | --- | --- | --- | --- | --- | --- |
| CC1(C)CC[C@]2(C(=O)O)CC[C@]3(C)C(=CC[C@@H]4[C@@]5(C)CC[C@H](O[C@@H]6O[C@H](C(=O)O)[C@@H](O)[C@H](O)[C@H]6O)C(C)(C)[C@@H]5CC[C@]43C)[C@@H]2C1 | inactive | inactive | 11.3 | inactive | inactive | 18 | Active | 13.3 | Active | Active | Active | 11.9 | Ratio [2]: 6.14; Ratio [3]: 0.821; Activity [4]: 50.4%; Activity [13]: 0.2%; Activity [15]: 47.1%; Activity [16]: Active; Activity [17]: 99.9%; Activity [18]: 1.3%; Activity [20]: Active; Activity [21]: 54.9%; Activity [22]: tde |
| C[C@@H]1CC[C@@]2(OC1)O[C@H]1C[C@H]3[C@@H]4CC[C@H]5C[C@@H](O[C@@H]6O[C@H](CO)[C@H](O[C@@H]7O[C@H](CO)[C@@H](O)[C@H](O[C@@H]8OC[C@@H](O)[C@H](O)[C@H]8O)[C@H]7O[C@@H]7O[C@H](CO)[C@@H](O)[C@H](O)[C@H]7O)[C@H](O)[C@H]6O)CC[C@]5(C)[C@H]4CC[C@]3(C)[C@H]1[C@@H]2C [DEGALACTOTIGONIN] | inactive | inactive | 8.27 | inactive | inactive | 15.4 | Active | 11.7 | Active | Active | Active | 9.33 | Ratio [24]: 9; Activity [25]: Active; Activity [26]: 98.7%; Activity [27]: 50.5%; Activity [28]: 27.5% |
